Results taken from PubChem BioAssay AID330 (DTP/NCI, 2004).
Where “and” joins values, the source holds several entries; their conditions need not be identical. Identical values can stand only once. Inconclusive results and toxic doses are left out. Rule for the calls: active = survival T/C of 150% or more; inactive = T/C below 125% in these data.

Tested on: P388 leukemia ip, CD2F1 mice, survival T/C
Assay: NCI In Vivo Anticancer Drug Screen. Data for tumor model P388 Leukemia (intraperitoneal) in CD2F1 (CDF1) mice
Details: endpoint: median survival time, higher = longer survival
How it was run: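 Mice carrying the transplanted tumor received test compound or vehicle. Survival was recorded in each group, and the value is the treated-group measurement divided by that of the vehicle-treated control group.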

[1] = dose: 60.0 mg/kg/injection, schedule: Q01DX005 (ip), vehicle: saline with Tween-80
[2] = dose: 120.0 mg/kg/injection, schedule: Q01DX005 (ip), vehicle: saline with Tween-80
[3] = dose: 50.0 mg/kg/injection, schedule: Q01DX009 (ip), vehicle: saline with Tween-80

Measured: T/C

Cc1cn(C2CC(O)C(Cn3ccc4ccccc43)O2)c(=O)[nH]c1=O (configuration not stated)
inactive: dose: 1.56 mg/kg/injection, schedule: Q01DX009 (ip), vehicle: Klucel (hydroxypropylcellulose) (HPC) 103 % of control | dose: 3.13 mg/kg/injection, schedule: Q01DX009 (ip), vehicle: Klucel (hydroxypropylcellulose) (HPC) 99 % of control | dose: 6.25 mg/kg/injection, schedule: Q01DX009 (ip), vehicle: Klucel (hydroxypropylcellulose) (HPC) 99 % of control | dose: 12.5 mg/kg/injection, schedule: Q01DX009 (ip), vehicle: Klucel (hydroxypropylcellulose) (HPC) 99 % of control | dose: 25.0 mg/kg/injection, schedule: Q01DX009 (ip), vehicle: Klucel (hydroxypropylcellulose) (HPC) 97 % of control

CCC(c1ccc(CN(C)C)c(O)c1)C(CC)c1ccc(CN(C)C)c(O)c1 (configuration not stated)
inactive: [1] 93 % of control | [2] 91 % of control | dose: 240.0 mg/kg/injection, schedule: Q01DX005 (ip), vehicle: saline with Tween-80 102 % of control

CCN(CC)Cc1ccc2ccccc2c1O
inactive: [3] 103 % of control | dose: 100.0 mg/kg/injection, schedule: Q01DX009 (ip), vehicle: saline with Tween-80 89 % of control | dose: 200.0 mg/kg/injection, schedule: Q01DX009 (ip), vehicle: saline with Tween-80 92 % of control

NC(=S)N/N=C\c1nccc2ccc(N)cc12
inactive: [3] 94 % of control

N#C/C(=C/c1ccccc1)CBr
inactive: dose: 100.0 mg/kg/injection, schedule: Q01DX001 (ip), vehicle: saline with Tween-80 95 % of control

O=C(O)c1ccccc1C(=O)OCc1ccccc1
inactive: dose: 100.0 mg/kg/injection, schedule: Q04DX003 (ip), vehicle: Klucel (hydroxypropylcellulose) (HPC) 100 % of control | dose: 200.0 mg/kg/injection, schedule: Q04DX003 (ip), vehicle: Klucel (hydroxypropylcellulose) (HPC) 100 % of control | dose: 400.0 mg/kg/injection, schedule: Q04DX003 (ip), vehicle: Klucel (hydroxypropylcellulose) (HPC) 97 % of control

O=C(/N=C1\N=Nc2nc(C3(c4nc5n(c4O)/C(=N/C(=O)Nc4ccc(Cl)cc4)N=N5)CCCC3=O)c(O)n21)Nc1ccc(Cl)cc1 (configuration not stated)
inactive: [1] 91 % of control | [2] 86 % of control

CC(=O)c1c(-c2nc(=S)[nH]c(C)c2C(C)=O)nc(=S)[nH]c1C
inactive: dose: 60.0 mg/kg/injection, schedule: Q01DX005 (ip), vehicle: Klucel (hydroxypropylcellulose) (HPC) 106 % of control | dose: 120.0 mg/kg/injection, schedule: Q01DX005 (ip), vehicle: Klucel (hydroxypropylcellulose) (HPC) 100 % of control | dose: 240.0 mg/kg/injection, schedule: Q01DX005 (ip), vehicle: Klucel (hydroxypropylcellulose) (HPC) 90 % of control

Cc1cc2c(=O)[nH]cnc2n1C1C(O)CCCC1O (configuration not stated)
inactive: dose: 50.0 mg/kg/injection, schedule: Q01DX005 (ip), vehicle: Klucel (hydroxypropylcellulose) (HPC) 106 % of control | dose: 100.0 mg/kg/injection, schedule: Q01DX005 (ip), vehicle: Klucel (hydroxypropylcellulose) (HPC) 104 % of control | dose: 200.0 mg/kg/injection, schedule: Q01DX005 (ip), vehicle: Klucel (hydroxypropylcellulose) (HPC) 107 % of control

O=C(O)C(O)C(O)C(OC1OC(CO)C(O)C(O)C1O)C(O)CO (configuration not stated)
inactive: dose: 50.0 mg/kg/injection, schedule: Q01DX005 (ip), vehicle: saline 105 % of control | dose: 100.0 mg/kg/injection, schedule: Q01DX005 (ip), vehicle: saline 101 % of control | dose: 200.0 mg/kg/injection, schedule: Q01DX005 (ip), vehicle: saline 102 % of control

CC(=O)NC(=S)Nc1ccccc1
inactive: dose: 25.0 mg/kg/injection, schedule: Q01DX001 (ip), vehicle: Klucel (hydroxypropylcellulose) (HPC) 100 % of control | dose: 50.0 mg/kg/injection, schedule: Q01DX001 (ip), vehicle: Klucel (hydroxypropylcellulose) (HPC) 101 % of control | dose: 100.0 mg/kg/injection, schedule: Q01DX001 (ip), vehicle: Klucel (hydroxypropylcellulose) (HPC) 103 % of control

C[C@]12C=CC(=O)C=C1CC[C@@H]1[C@@H]2C(=O)C[C@@]2(C)[C@H]1CC[C@]2(O)C(=O)CO
inactive: dose: 25.0 mg/kg/injection, schedule: Q01DX009 (ip), vehicle: saline 106 % of control | dose: 30.0 mg/kg/injection, schedule: Q04DX002 (sc), vehicle: Klucel (hydroxypropylcellulose) (HPC) 100 % of control and 95 % of control | dose: 44.0 mg/kg/injection, schedule: Q04DX002 (sc), vehicle: Klucel (hydroxypropylcellulose) (HPC) 100 % of control | dose: 45.0 mg/kg/injection, schedule: Q04DX002 (sc), vehicle: Klucel (hydroxypropylcellulose) (HPC) 104 % of control | dose: 50.0 mg/kg/injection, schedule: Q01DX001 (oral), vehicle: saline 93 % of control | dose: 50.0 mg/kg/injection, schedule: Q01DX005 (sc), vehicle: Klucel (hydroxypropylcellulose) (HPC) 111 % of control | dose: 50.0 mg/kg/injection, schedule: Q01DX009 (ip), vehicle: saline 106 % of control | dose: 50.0 mg/kg/injection, schedule: Q01DX009 (oral), vehicle: saline 100 % of control | dose: 67.0 mg/kg/injection, schedule: Q04DX002 (sc), vehicle: Klucel (hydroxypropylcellulose) (HPC) 100 % of control and 104 % of control | dose: 100.0 mg/kg/injection, schedule: Q01DX001 (oral), vehicle: saline 100 % of control | dose: 100.0 mg/kg/injection, schedule: Q01DX005 (sc), vehicle: Klucel (hydroxypropylcellulose) (HPC) 111 % of control | dose: 100.0 mg/kg/injection, schedule: Q01DX009 (ip), vehicle: saline 106 % of control | dose: 100.0 mg/kg/injection, schedule: Q01DX009 (oral), vehicle: saline 114 % of control | dose: 100.0 mg/kg/injection, schedule: Q04DX002 (sc), vehicle: Klucel (hydroxypropylcellulose) (HPC) 98 % of control and 107 % of control | dose: 125.0 mg/kg/injection, schedule: Q01DX001 (ip), vehicle: steriod suspending solution 98 % of control and 95 % of control | dose: 133.0 mg/kg/injection, schedule: Q01DX001 (sc), vehicle: Klucel (hydroxypropylcellulose) (HPC) 100 % of control | dose: 200.0 mg/kg/injection, schedule: Q01DX001 (oral), vehicle: saline 100 % of control | dose: 200.0 mg/kg/injection, schedule: Q01DX001 (sc), vehicle: Klucel (hydroxypropylcellulose) (HPC) 100 % of control | dose: 200.0 mg/kg/injection, schedule: Q01DX005 (sc), vehicle: Klucel (hydroxypropylcellulose) (HPC) 115 % of control | dose: 200.0 mg/kg/injection, schedule: Q01DX009 (ip), vehicle: saline 106 % of control | dose: 200.0 mg/kg/injection, schedule: Q01DX009 (oral), vehicle: saline 100 % of control | dose: 250.0 mg/kg/injection, schedule: Q01DX001 (ip), vehicle: steriod suspending solution 91 % of control and 95 % of control | dose: 300.0 mg/kg/injection, schedule: Q01DX001 (sc), vehicle: Klucel (hydroxypropylcellulose) (HPC) 107 % of control | dose: 400.0 mg/kg/injection, schedule: Q01DX001 (oral), vehicle: saline 87 % of control | dose: 400.0 mg/kg/injection, schedule: Q01DX005 (sc), vehicle: Klucel (hydroxypropylcellulose) (HPC) 115 % of control | dose: 400.0 mg/kg/injection, schedule: Q01DX009 (ip), vehicle: saline 106 % of control | dose: 400.0 mg/kg/injection, schedule: Q01DX009 (oral), vehicle: saline 114 % of control | dose: 450.0 mg/kg/injection, schedule: Q01DX001 (sc), vehicle: Klucel (hydroxypropylcellulose) (HPC) 108 % of control | dose: 500.0 mg/kg/injection, schedule: Q01DX001 (ip), vehicle: steriod suspending solution 91 % of control and 94 % of control | dose: 800.0 mg/kg/injection, schedule: Q01DX001 (oral), vehicle: saline 100 % of control | dose: 800.0 mg/kg/injection, schedule: Q01DX005 (ip), vehicle: Klucel (hydroxypropylcellulose) (HPC) 108 % of control | dose: 800.0 mg/kg/injection, schedule: Q01DX005 (sc), vehicle: Klucel (hydroxypropylcellulose) (HPC) 113 % of control | dose: 800.0 mg/kg/injection, schedule: Q01DX009 (oral), vehicle: saline 107 % of control | dose: 1000.0 mg/kg/injection, schedule: Q01DX001 (ip), vehicle: steriod suspending solution 34 % of control | dose: 1600.0 mg/kg/injection, schedule: Q01DX005 (ip), vehicle: Klucel (hydroxypropylcellulose) (HPC) 116 % of control | dose: 1600.0 mg/kg/injection, schedule: Q01DX005 (sc), vehicle: Klucel (hydroxypropylcellulose) (HPC) 100 % of control | dose: 6400.0 mg/kg/injection, schedule: Q01DX005 (sc), vehicle: Klucel (hydroxypropylcellulose) (HPC) 102 % of control

Cc1ccc(S(=O)(=O)C[n+]2ccc3ccccc3c2)cc1
inactive: dose: 100.0 mg/kg/injection, schedule: Q04DX003 (ip), vehicle: saline with Tween-80 98 % of control | dose: 100.0 mg/kg/injection, schedule: Q04DX003 (ip), vehicle: saline 114 % of control and 118 % of control | dose: 200.0 mg/kg/injection, schedule: Q04DX003 (ip), vehicle: saline with Tween-80 105 % of control | dose: 200.0 mg/kg/injection, schedule: Q04DX003 (ip), vehicle: saline 117 % of control | dose: 400.0 mg/kg/injection, schedule: Q04DX003 (ip), vehicle: saline with Tween-80 100 % of control
